Measurements published in patent US5162318A, “Benzimidazolinone derivatives” (Yamanouchi Pharmaceutical Co., Ltd., priority 1990, dated 1992).
Structures can show the parent of a compound that is named as a salt.

How the values were obtained:
[1] = test system: pulmonary surfactant secretion; test: Stimulatory effect on pulmonary surfactant secretion (disaturated phosphatidylcholine in bronchoalveolar lavage fluid); assay type: in vivo, guinea pig (male Hartley); settings: guinea pigs; for Pharmacological activity: % increase of disaturated phosphatidylcholine (DSPC) compared to control values: 50 mg/kg i.p. once, lavage 3 hours later, number of animals in parentheses, * significantly different from control values (p < 0.05), Compounds A and B not marked *; for stimulation of pulmonary surfactant secretion (in words): conclusion from Table 1, 50 mg/kg i.p.
Description: The stimulatory effect of the compound of the present invention on pulmonary surfactant secretion In the experiment, male Hartley guinea pigs weighing 300-350 g were used. Methods 50 mg/kg of the test compound was intraperitoneally administered to guinea pigs once. Three hours later, the animals were anesthetized with 100 mg/kg of pentobarbital sodium and sacrificed by bleeding from the abdominal aorta and vena cava. Then, bronchoalveolar lavage with 10 ml/kg of ice-cooled physiological saline was performed twice. The combined bronchoalveolar lavage fluid was centrifuged at 1,000 rpm for 10 minutes at 4° C. From the supernatant of bronchoalveolar lavage fluid, the lipid was extracted in accordance with the method of Folch et al. (Journal of Biological Chemistry, 226, 497-502, 1957). The characteristic component of pulmonary surfactant, i.e., disaturated phosphatidylcholine was extracted by the method of Gilfillan et al. (Journal of Lipid Research, 24, 1651- 1656, 1983). The disaturated phosphatidylcholine was assayed with Nescoat PL Kit-K (Nippon Shoji Co., Ltd.) and the percent increase compared to a control group was determined (M. Takayama, et al.: Clin. Chim. Acta, 79, 93-98, 1977).

[2] = test system: secretion of the endogenous pulmonary surfactant; settings: Post et al.: Lung 161, 349-359, 1983; cited from earlier work

Row | SMILES | Pharmacological activity: % increase of disaturated phosphatidylcholine (DSPC) compared to control values [1] [%] | stimulation of pulmonary surfactant secretion (in words) [1] | activity to promote secretion of the endogenous pulmonary surfactant (in words) [2]
1 | Cl.O=c1[nH]c2ccc(Cl)cc2n1CCN1CCCC1 [19(4), 6-Chloro-1,3-dihydro-1-[2-(1-pyrrolidinyl)ethyl]-2H-benzimidazol-2-one hydrochloride] | 33.1 ± 8.3 | – | –
2 | CN(C)CCn1c(=O)[nH]c2c(Br)cc(Br)cc21.Cl [4(3), 4,6-Dibromo-1,3-dihydro-1-(2-dimethylaminoethyl)-2H-benzimidazol-2-one hydrochloride] | 32.3 ± 7.0 | – | –
3 | CN(C)CCn1c(=O)[nH]c2ccccc21.Cl [Example 12(5), 1,3-dihydro-1-(2-dimethylaminoethyl)-2H-benzimidazol-2-one hydrochloride] | 27.4 ± 4.9 | – | –
4 | CN(C)CCCn1c(=O)[nH]c2ccccc21 [Compound A, 1,3Dihydro-1-(3-dimethylaminopropyl)-2H-benzimidazol-2-one] | -9.3 | do not stimulate secretion of pulmonary surfactant but rather tend to decrease the secretion | –
5 | CN(C)CCn1c(=O)[nH]c2ccc(Cl)cc21.Cl [11(4), 6-Chloro-1,3-dihydro-1-(2-dimethylaminoethyl)-2H-benzimidazol-2-one hydrochloride] | 37.8 ± 13.2 | – | –
6 | Nc1c(Br)cc(Br)cc1CN[C@H]1CC[C@H](O)CC1 [ambroxol hydrochloride] | – | – | only substance known to have such activity
7 | CN(C)CCn1c(=O)[nH]c2ccc(Br)cc21.Cl [3(5), 6-Bromo-1,3-dihydro-1-(2-dimethylaminoethyl)-2H-benzimidazol-2-one hydrochloride] | 27.9 ± 6.2 | – | –
8 | CCN(CC)CCn1c(=O)[nH]c2ccccc21 [Compound B, 1,3Dihydro-1-(2-diethylaminoethyl)-2H-benzimidazol-2-one] | -20.7 | do not stimulate secretion of pulmonary surfactant but rather tend to decrease the secretion | –
